Laboratory results published in ChEMBL document CHEMBL3885881, “DrugMatrix”.

Organism: Rattus norvegicus
Assay: DrugMatrix - Regimen: Daily Repeat
Assay type: toxicity, organism-based, Sprague-Dawley
Design: regimen Daily Repeat, gender Male, age 6-8 weeks
Conditions: in vivo, iv, vehicle 100 % SALINE; for ABSOLUTE BASOPHIL / ABSOLUTE EOSINOPHIL / ABSOLUTE LYMPHOCYTE / ABSOLUTE MONOCYTE / ABSOLUTE SEGMENTED NEUTROPHIL / BASOPHIL / EOSINOPHIL / ERYTHROCYTE COUNT / HEMATOCRIT / HEMOGLOBIN / LEUKOCYTE COUNT / LYMPHOCYTE / MEAN CORPUSCULAR HEMOGLOBIN / MEAN CORPUSCULAR HEMOGLOBIN CONCENTRATION / MEAN CORPUSCULAR VOLUME / MONOCYTE / NEUTROPHIL / NUCLEATED RED BLOOD CELLS / PLATELET COUNT: tissue Blood; for ALANINE AMINOTRANSFERASE / ALBUMIN / ALKALINE PHOSPHATASE / ASPARTATE AMINOTRANSFERASE / BLOOD UREA NITROGEN / CARBON DIOXIDE / CHLORIDE / CHOLESTEROL / CREATINE PHOSPHOKINASE / CREATININE / GLUCOSE / LACTATE DEHYDROGENASE / LIPASE / PHOSPHORUS / POTASSIUM / SODIUM / TOTAL BILIRUBIN / TOTAL PROTEIN / URIC ACID: tissue Plasma
[1] = 29 mg/kg, 120 h, dose level Low, time 5 day
[2] = 48 mg/kg, 72 h, dose level High, time 3 day
[3] = 48 mg/kg, 120 h, dose level High, time 5 day

`C[n+]1ccccc1/C=N/O.[Cl-]` [PRALIDOXIME CHLORIDE] was tested, and the “ABSOLUTE BASOPHIL” value [1] was 0 CELLS/uL, the “ABSOLUTE EOSINOPHIL” value [1] was 0 CELLS/uL and the “ABSOLUTE LYMPHOCYTE” value [1] was 11211.67 CELLS/uL. For the same compound, the “ABSOLUTE MONOCYTE” value [1] was 254 CELLS/uL, the “ABSOLUTE SEGMENTED NEUTROPHIL” value [1] was 1034.33 CELLS/uL and the BASOPHIL [1] was 0%. For the same compound, the EOSINOPHIL [1] was 0%, the “ERYTHROCYTE COUNT” value [1] was 5.41 x10E6/uL and the HEMATOCRIT [1] was 34.03%. For the same compound, the HEMOGLOBIN [1] was 12.57 G/DL, the “LEUKOCYTE COUNT” value [1] was 12.5 x10E3/uL and the LYMPHOCYTE [1] was 89.67%. For the same compound, the “MEAN CORPUSCULAR HEMOGLOBIN” value [1] was 23.3 pg, the “MEAN CORPUSCULAR HEMOGLOBIN CONCENTRATION” value [1] was 36.97 G/DL and the “MEAN CORPUSCULAR VOLUME” value [1] was 63 fL. The MONOCYTE [1] was 2%, the NEUTROPHIL [1] was 8.33% and the “NUCLEATED RED BLOOD CELLS” value [1] was 0 /100WBC. For the same compound, the “PLATELET COUNT” value [1] was 1164.33 x10E3/uL, the “ALANINE AMINOTRANSFERASE” value [1] was 69.67 u/L and the ALBUMIN [1] was 3.7 G/DL. The “ALKALINE PHOSPHATASE” value [1] was 366.67 u/L, the “ASPARTATE AMINOTRANSFERASE” value [1] was 95.33 u/L and the “BLOOD UREA NITROGEN” value [1] was 17.67 mg/dL. For the same compound, the “CARBON DIOXIDE” value [1] was 22.67 mmol/L, the CHLORIDE [1] was 105 MEQ/L and the CHOLESTEROL [1] was 58.67 mg/dL. The “CREATINE PHOSPHOKINASE” value [1] was 283.67 u/L, the CREATININE [1] was 0.2 mg/dL and the GLUCOSE [1] was 168.67 mg/dL. The “LACTATE DEHYDROGENASE” value [1] was 87.33 u/L, the LIPASE [1] was 9 u/L and the PHOSPHORUS [1] was 12.73 mg/dL. For the same compound, the POTASSIUM [1] was 7.24 MEQ/L, the SODIUM [1] was 145.2 MEQ/L and the “TOTAL BILIRUBIN” value [1] was 0.1 mg/dL. The “TOTAL PROTEIN” value [1] was 5.83 G/DL, the “URIC ACID” value [1] was 1.97 mg/dL and the “ABSOLUTE BASOPHIL” value [2] was 0 CELLS/uL. The “ABSOLUTE EOSINOPHIL” value [2] was 0 CELLS/uL, the “ABSOLUTE LYMPHOCYTE” value [2] was 13021.33 CELLS/uL and the “ABSOLUTE MONOCYTE” value [2] was 38.67 CELLS/uL. For the same compound, the “ABSOLUTE SEGMENTED NEUTROPHIL” value [2] was 1206.67 CELLS/uL, the BASOPHIL [2] was 0% and the EOSINOPHIL [2] was 0%. For the same compound, the “ERYTHROCYTE COUNT” value [2] was 5.54 x10E6/uL, the HEMATOCRIT [2] was 36.53% and the HEMOGLOBIN [2] was 13.53 G/DL. The “LEUKOCYTE COUNT” value [2] was 14.27 x10E3/uL, the LYMPHOCYTE [2] was 91.33% and the “MEAN CORPUSCULAR HEMOGLOBIN” value [2] was 24.57 pg. The “MEAN CORPUSCULAR HEMOGLOBIN CONCENTRATION” value [2] was 37.03 G/DL, the “MEAN CORPUSCULAR VOLUME” value [2] was 66.2 fL and the MONOCYTE [2] was 0.33%. The NEUTROPHIL [2] was 8.33%, the “NUCLEATED RED BLOOD CELLS” value [2] was 0 /100WBC and the “PLATELET COUNT” value [2] was 1281.33 x10E3/uL. The “ALANINE AMINOTRANSFERASE” value [2] was 51.67 u/L, the ALBUMIN [2] was 4.43 G/DL and the “ALKALINE PHOSPHATASE” value [2] was 377.33 u/L. The “ASPARTATE AMINOTRANSFERASE” value [2] was 70.67 u/L, the “BLOOD UREA NITROGEN” value [2] was 14.67 mg/dL and the “CARBON DIOXIDE” value [2] was 19.33 mmol/L. For the same compound, the CHLORIDE [2] was 101.33 MEQ/L, the CHOLESTEROL [2] was 73.67 mg/dL and the “CREATINE PHOSPHOKINASE” value [2] was 198.33 u/L. For the same compound, the CREATININE [2] was 0.19 mg/dL, the GLUCOSE [2] was 169.33 mg/dL and the “LACTATE DEHYDROGENASE” value [2] was 89.67 u/L. For the same compound, the LIPASE [2] was 10 u/L, the PHOSPHORUS [2] was 11.87 mg/dL and the POTASSIUM [2] was 6 MEQ/L. The SODIUM [2] was 146.3 MEQ/L, the “TOTAL BILIRUBIN” value [2] was 0.2 mg/dL and the “TOTAL PROTEIN” value [2] was 6.03 G/DL. For the same compound, the “URIC ACID” value [2] was 1.37 mg/dL, the “ABSOLUTE BASOPHIL” value [3] was 0 CELLS/uL and the “ABSOLUTE EOSINOPHIL” value [3] was 56 CELLS/uL. The “ABSOLUTE LYMPHOCYTE” value [3] was 13632 CELLS/uL, the “ABSOLUTE MONOCYTE” value [3] was 1059.33 CELLS/uL and the “ABSOLUTE SEGMENTED NEUTROPHIL” value [3] was 1786 CELLS/uL. The BASOPHIL [3] was 0%, the EOSINOPHIL [3] was 0.33% and the “ERYTHROCYTE COUNT” value [3] was 5.32 x10E6/uL. For the same compound, the HEMATOCRIT [3] was 32.57%, the HEMOGLOBIN [3] was 12.23 G/DL and the “LEUKOCYTE COUNT” value [3] was 16.53 x10E3/uL. The LYMPHOCYTE [3] was 82.33%, the “MEAN CORPUSCULAR HEMOGLOBIN” value [3] was 23 pg and the “MEAN CORPUSCULAR HEMOGLOBIN CONCENTRATION” value [3] was 37.57 G/DL. The “MEAN CORPUSCULAR VOLUME” value [3] was 61.17 fL, the MONOCYTE [3] was 6.33% and the NEUTROPHIL [3] was 11%. For the same compound, the “NUCLEATED RED BLOOD CELLS” value [3] was 0 /100WBC, the “PLATELET COUNT” value [3] was 992.67 x10E3/uL and the “ALANINE AMINOTRANSFERASE” value [3] was 69 u/L. For the same compound, the ALBUMIN [3] was 3.57 G/DL, the “ALKALINE PHOSPHATASE” value [3] was 386.67 u/L and the “ASPARTATE AMINOTRANSFERASE” value [3] was 113.33 u/L. The “BLOOD UREA NITROGEN” value [3] was 16 mg/dL, the “CARBON DIOXIDE” value [3] was 27 mmol/L and the CHLORIDE [3] was 104.33 MEQ/L. The CHOLESTEROL [3] was 62 mg/dL, the “CREATINE PHOSPHOKINASE” value [3] was 792 u/L and the CREATININE [3] was 0.2 mg/dL. For the same compound, the GLUCOSE [3] was 194 mg/dL, the “LACTATE DEHYDROGENASE” value [3] was 193.33 u/L and the LIPASE [3] was 11.33 u/L. The PHOSPHORUS [3] was 11.63 mg/dL, the POTASSIUM [3] was 6.09 MEQ/L and the SODIUM [3] was 144.97 MEQ/L. For the same compound, the “TOTAL BILIRUBIN” value [3] was 0.13 mg/dL, the “TOTAL PROTEIN” value [3] was 6.03 G/DL and the “URIC ACID” value [3] was 1.73 mg/dL.
